# According to US10023612B2, “Method of treating endometriosis” (ValiRx PLC, priority 2011, dated 2018):
# Values joined by “and” are separate entries in the source; they are usually repeats but may differ in a detail not shown here. Identical values can stand only once.
# What was measured:
# [1] = system: endometriosis lesions (plugs of uterine tissue); assay: Dose ranging prevention study, transplanted plugs of uterine tissue; assay type: in vivo, C57BL6 mice; details: for Lesion burden Ave / Lesion growth Ave: average per mouse; for Lesion burden Mean / Lesion establishment Mean / Lesion growth Mean: group mean; for Lesion burden P1 / Lesion burden P2 / Lesion burden P3 / Lesion burden P4 / Lesion burden P5 / Lesion burden P6 / Lesion growth M1 / Lesion growth M2 / Lesion growth P1 / Lesion growth P2 / Lesion growth P3 / Lesion growth P4 / Lesion establishment M1 / Lesion establishment M2 / Lesion establishment P1 / Lesion establishment P2 / Lesion establishment P3 / Lesion establishment P4: individual mouse; for Lesion establishment M1 / Lesion establishment M2 / Lesion establishment P1 / Lesion establishment P2 / Lesion establishment P3 / Lesion establishment P4: 1 or 0; for Lesion establishment Ave: per mouse
# endometriosis lesion = assay: First study: in-vivo model of endometriosis, tissue from K-rasV12/Ah-Cre/ROSA26R-LacZ donor mice in wild-type animals; details: four treated animals, injected for 21 days
# Method: In a first study, a total of 4 treatment and 5 control animals were generated in a novel in-vivo model of endometriosis (Research Horizons, University of Cambridge, 2009 Issue 8, GB 0715635.9) K-rasV12/Ah-Cre transgenic mice were crossed with Rosa26R mice to generate KrasV12+/−/Ah-Cre+/−/ROSA26R-LacZ+/− transgenic mice. The F1 offspring were inbred to generate F2 K-rasV12+/−/Ah-Cre+/+/ROSA26R-LacZ+/+ transgenic mice. The presence of the transgenes was determined by PCR using gene specific primers for K-ras, Cre and Rosa26R-LacZ. Tissue was collected from donor animals previously treated with hormones etc. and was divided between wild-type animals that were then injected with drug or vehicle for 21 days.
# [2] = mouse, in vivo
# Source text: Offspring from dosed females were mated and checked for fertility to determine possible inheritable effects.
# [3] = mouse, in vivo; remark: listed apart in the source
# Method: 8-10 week old, female nulliparous C57BL6 mice were acclimatised for 1 week. A group of 10 female animals were dosed with 10 ng of peptide injected subcutaneously 3 days prior to experimentation with a control group of 10 animals treated with vehicle alone.
# 5 male C57BL6 animals were introduced and the females checked daily for mucous plug (before 9 a.m.). When mucous plug was recorded the females were evaluated for:
# a) Length of possible pregnancy (days)
# c) Anomalies in offspring
substance,measurement,setting,value
"Ac-PPPHPHARIK-NH2 [ValiRx1, Ac-Pro-Pro-Pro-His-Pro-His-Ala-Arg-Ile-Lys-NH2]",lesion growth following treatment vs control group,"[1]; 1 ng, 10 ng or 100 ng s.c. daily",significantly reduced
same,Lesion burden Ave,[1]; 1 ng/mouse s.c. daily,1.1 mm^2 and 1.9 mm^2 and 12.1 mm^2 and 6.5 mm^2 and 8.5 mm^2
same,Lesion growth Ave,[1]; 1 ng/mouse s.c. daily,6.5 mm^2 and 8.5 mm^2 and 1.3 mm^2 and 1.9 mm^2 and 12.1 mm^2
same,Lesion burden Mean,[1]; 1 ng/mouse s.c. daily,6.02 mm^2
same,Lesion establishment Mean,[1]; 1 ng/mouse s.c. daily,96.67%
same,Lesion growth Mean,[1]; 1 ng/mouse s.c. daily,6.23 mm^2
same,Lesion burden P1,[1]; 1 ng/mouse s.c. daily,1.8 mm^2 and 1.1 mm^2 and 4.2 mm^2 and 15.1 mm^2 and 10.2 mm^2
same,Lesion burden P2,[1]; 1 ng/mouse s.c. daily,0.2 mm^2 and 3.1 mm^2 and 16.7 mm^2 and 5.7 mm^2 and 10.6 mm^2
same,Lesion burden P3,[1]; 1 ng/mouse s.c. daily,0.1 mm^2 and 2.5 mm^2 and 15.2 mm^2 and 8.0 mm^2 and 16.6 mm^2
same,Lesion burden P4,[1]; 1 ng/mouse s.c. daily,0.0 mm^2 and 0.2 mm^2 and 17.0 mm^2 and 3.8 mm^2 (2×)
same,Lesion burden P5,[1]; 1 ng/mouse s.c. daily,3.5 mm^2 and 1.1 mm^2 and 11.2 mm^2 and 0.2 mm^2 and 0.5 mm^2
same,Lesion burden P6,[1]; 1 ng/mouse s.c. daily,1.1 mm^2 and 3.5 mm^2 and 8.0 mm^2 and 6.2 mm^2 and 9.4 mm^2
same,Lesion growth M1,[1]; 1 ng/mouse s.c. daily,0.196 mm^2 and 0.503 mm^2 and 3.456 mm^2 and 1.131 mm^2 and 11.2 mm^2
same,Lesion growth M2,[1]; 1 ng/mouse s.c. daily,6.158 mm^2 and 9.425 mm^2 and 1.131 mm^2 and 3.464 mm^2 and 8.042 mm^2
same,Lesion growth P1,[1]; 1 ng/mouse s.c. daily,1.131 mm^2 and 4.155 mm^2 and 15.1 mm^2 and 10.18 mm^2 and 1.767 mm^2
same,Lesion growth P2,[1]; 1 ng/mouse s.c. daily,3.142 mm^2 and 16.74 mm^2 and 5.694 mm^2 and 10.56 mm^2 and 0.196 mm^2
same,Lesion growth P3,[1]; 1 ng/mouse s.c. daily,2.545 mm^2 and 15.21 mm^2 and 8.042 mm^2 and 16.62 mm^2 and 0.126 mm^2
same,Lesion growth P4,[1]; 1 ng/mouse s.c. daily,3.801 mm^2 (2×) and 0.196 mm^2 and 16.96 mm^2
same,Lesion establishment M1,[1]; 1 ng/mouse s.c. daily,1
same,Lesion establishment M2,[1]; 1 ng/mouse s.c. daily,1
same,Lesion establishment P1,[1]; 1 ng/mouse s.c. daily,1
same,Lesion establishment P2,[1]; 1 ng/mouse s.c. daily,1
same,Lesion establishment P3,[1]; 1 ng/mouse s.c. daily,1
same,Lesion establishment P4,[1]; 1 ng/mouse s.c. daily,1 (4×) and 0
same,Lesion establishment Ave,[1]; 1 ng/mouse s.c. daily,100% (4×) and 83.33%
same,Lesion burden Ave,[1]; 10 ng/mouse s.c. daily,2.9 mm^2 and 6.7 mm^2 and 11.3 mm^2 and 3.3 mm^2 and 3.5 mm^2
same,Lesion growth Ave,[1]; 10 ng/mouse s.c. daily,2.9 mm^2 and 6.7 mm^2 and 11.3 mm^2 and 3.3 mm^2 and 4.2 mm^2
same,Lesion burden Mean,[1]; 10 ng/mouse s.c. daily,5.53 mm^2
same,Lesion establishment Mean,[1]; 10 ng/mouse s.c. daily,96.67%
same,Lesion growth Mean,[1]; 10 ng/mouse s.c. daily,5.72 mm^2
same,Lesion burden P1,[1]; 10 ng/mouse s.c. daily,1.0 mm^2 and 7.3 mm^2 and 12.6 mm^2 and 3.1 mm^2 and 1.1 mm^2
same,Lesion burden P2,[1]; 10 ng/mouse s.c. daily,3.5 mm^2 (2×) and 10.0 mm^2 and 7.0 mm^2 and 2.5 mm^2
same,Lesion burden P3,[1]; 10 ng/mouse s.c. daily,10.9 mm^2 and 4.5 mm^2 and 9.6 mm^2 and 3.5 mm^2 (2×)
same,Lesion burden P4,[1]; 10 ng/mouse s.c. daily,1.0 mm^2 and 6.7 mm^2 and 5.4 mm^2 and 3.0 mm^2 and 0.0 mm^2
same,Lesion burden P5,[1]; 10 ng/mouse s.c. daily,1.0 mm^2 and 7.1 mm^2 and 21.1 mm^2 and 3.5 mm^2 and 4.0 mm^2
same,Lesion burden P6,[1]; 10 ng/mouse s.c. daily,0.2 mm^2 and 4.5 mm^2 and 12.1 mm^2 and 3.1 mm^2 and 9.7 mm^2
same,Lesion growth M1,[1]; 10 ng/mouse s.c. daily,0.95 mm^2 and 7.069 mm^2 and 21.11 mm^2 and 3.464 mm^2 and 3.958 mm^2
same,Lesion growth M2,[1]; 10 ng/mouse s.c. daily,0.196 mm^2 and 4.524 mm^2 and 12.06 mm^2 and 3.142 mm^2 and 9.66 mm^2
same,Lesion growth P1,[1]; 10 ng/mouse s.c. daily,0.95 mm^2 and 7.288 mm^2 and 12.57 mm^2 and 3.142 mm^2 and 1.131 mm^2
same,Lesion growth P2,[1]; 10 ng/mouse s.c. daily,3.464 mm^2 (2×) and 10.02 mm^2 and 7.037 mm^2 and 2.545 mm^2
same,Lesion growth P3,[1]; 10 ng/mouse s.c. daily,10.95 mm^2 and 4.524 mm^2 and 9.621 mm^2 and 3.464 mm^2 (2×)
same,Lesion growth P4,[1]; 10 ng/mouse s.c. daily,0.95 mm^2 and 6.739 mm^2 and 5.372 mm^2 and 2.969 mm^2
same,Lesion establishment M1,[1]; 10 ng/mouse s.c. daily,1
same,Lesion establishment M2,[1]; 10 ng/mouse s.c. daily,1
same,Lesion establishment P1,[1]; 10 ng/mouse s.c. daily,1
same,Lesion establishment P2,[1]; 10 ng/mouse s.c. daily,1
same,Lesion establishment P3,[1]; 10 ng/mouse s.c. daily,1
same,Lesion establishment P4,[1]; 10 ng/mouse s.c. daily,1 (4×) and 0
same,Lesion establishment Ave,[1]; 10 ng/mouse s.c. daily,100% (4×) and 83.33%
same,Lesion burden Ave,[1]; 100 ng/mouse s.c. daily,11.8 mm^2 and 1.8 mm^2 and 3.2 mm^2 and 3.0 mm^2 and 2.9 mm^2
same,Lesion growth Ave,[1]; 100 ng/mouse s.c. daily,11.8 mm^2 and 1.8 mm^2 and 3.2 mm^2 and 3.0 mm^2 and 2.9 mm^2
same,Lesion burden Mean,[1]; 100 ng/mouse s.c. daily,4.52 mm^2
same,Lesion establishment Mean,[1]; 100 ng/mouse s.c. daily,100.00%
same,Lesion growth Mean,[1]; 100 ng/mouse s.c. daily,4.52 mm^2
same,Lesion burden P1,[1]; 100 ng/mouse s.c. daily,7.0 mm^2 and 4.5 mm^2 and 2.8 mm^2 and 2.0 mm^2 and 1.5 mm^2
same,Lesion burden P2,[1]; 100 ng/mouse s.c. daily,18.5 mm^2 and 2.8 mm^2 and 2.3 mm^2 and 3.1 mm^2 and 3.5 mm^2
same,Lesion burden P3,[1]; 100 ng/mouse s.c. daily,11.0 mm^2 and 2.3 mm^2 (2×) and 3.5 mm^2 and 4.9 mm^2
same,Lesion burden P4,[1]; 100 ng/mouse s.c. daily,8.4 mm^2 and 0.2 mm^2 and 3.8 mm^2 and 2.5 mm^2 and 1.8 mm^2
same,Lesion burden P5,[1]; 100 ng/mouse s.c. daily,12.6 mm^2 and 1.0 mm^2 and 7.5 mm^2 and 3.8 mm^2 and 2.0 mm^2
same,Lesion burden P6,[1]; 100 ng/mouse s.c. daily,13.2 mm^2 and 0.3 mm^2 (2×) and 2.8 mm^2 and 3.5 mm^2
same,Lesion growth M1,[1]; 100 ng/mouse s.c. daily,12.57 mm^2 and 0.95 mm^2 and 7.548 mm^2 and 3.801 mm^2 and 2.011 mm^2
same,Lesion growth M2,[1]; 100 ng/mouse s.c. daily,13.2 mm^2 and 0.283 mm^2 (2×) and 2.835 mm^2 and 3.464 mm^2
same,Lesion growth P1,[1]; 100 ng/mouse s.c. daily,7.037 mm^2 and 4.453 mm^2 and 2.827 mm^2 and 2.011 mm^2 and 1.539 mm^2
same,Lesion growth P2,[1]; 100 ng/mouse s.c. daily,18.47 mm^2 and 2.827 mm^2 and 2.27 mm^2 and 3.142 mm^2 and 3.464 mm^2
same,Lesion growth P3,[1]; 100 ng/mouse s.c. daily,11 mm^2 and 2.27 mm^2 (2×) and 3.464 mm^2 and 4.909 mm^2
same,Lesion growth P4,[1]; 100 ng/mouse s.c. daily,8.357 mm^2 and 0.196 mm^2 and 3.801 mm^2 and 2.545 mm^2 and 1.767 mm^2
same,Lesion establishment M1,[1]; 100 ng/mouse s.c. daily,1
same,Lesion establishment M2,[1]; 100 ng/mouse s.c. daily,1
same,Lesion establishment P1,[1]; 100 ng/mouse s.c. daily,1
same,Lesion establishment P2,[1]; 100 ng/mouse s.c. daily,1
same,Lesion establishment P3,[1]; 100 ng/mouse s.c. daily,1
same,Lesion establishment P4,[1]; 100 ng/mouse s.c. daily,1
same,Lesion establishment Ave,[1]; 100 ng/mouse s.c. daily,100%
same,lesion establishment,[1]; range over groups of the model,97.67%-100%
same,absence of lesion following treatment,endometriosis lesion,three showed complete absence of lesion
same,fertility of offspring from dosed females,[2],no abnormalities noted
same,fertility of mice,[3],does not affect their fertility
